Measured values: patent US11873486B2, “Modulating dsRNA editing, sensing, and metabolism to increase tumor immunity and improve the efficacy of cancer immunotherapy and/or modulators of intratumoral interferon” (Dana-Farber Cancer Institute, Inc., priority 2017, dated 2024)
Entries after “also recorded” stand apart in the source; their conditions may differ.

Assays:
[1] = molecular target: T1, ADA2 (Homo sapiens, UniProt Q9NZK5); conditions: cited from earlier work
T1 sequence (Q9NZK5 30-511): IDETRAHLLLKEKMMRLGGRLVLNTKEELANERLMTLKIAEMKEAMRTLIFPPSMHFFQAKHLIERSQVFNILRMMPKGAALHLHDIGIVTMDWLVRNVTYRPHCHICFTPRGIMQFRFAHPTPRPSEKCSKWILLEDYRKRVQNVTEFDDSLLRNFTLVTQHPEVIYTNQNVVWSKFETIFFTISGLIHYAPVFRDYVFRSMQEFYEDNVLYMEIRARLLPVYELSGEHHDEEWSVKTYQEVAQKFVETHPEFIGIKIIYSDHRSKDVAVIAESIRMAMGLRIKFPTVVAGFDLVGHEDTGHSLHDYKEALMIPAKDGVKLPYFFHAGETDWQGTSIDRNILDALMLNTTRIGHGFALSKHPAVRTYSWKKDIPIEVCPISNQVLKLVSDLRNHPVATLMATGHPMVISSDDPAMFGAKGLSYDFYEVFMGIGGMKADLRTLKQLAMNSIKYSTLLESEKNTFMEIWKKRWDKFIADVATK

[2] = system: interferon stimulated genes in ADAR-dependent cell lines; test: Immunoblot of interferon stimulated gene expression after inhibitor treatment; type: cell-based, human; conditions: for ISG expression / interferon signaling: antioxidant treatment of ADAR-dependent cell lines
Description: (§1) For drug treatment assays, cells were plated at a density of 3000 cells per well in a 96-well assay plate. The following day, cells were treated with ruxolitinib (INCB018424) from Selleck Chemicals; MRT67307 hydrocloride (SML0702) from Sigma-Aldrich; human interferon-alphal (#8927) from Cell Signaling; recombinant human IFN-beta 1a (mammalian) protein (114151) and recombinant human IFN-gamma protein (285-IF-100) from R&D Systems. For preincubation drug treatment experiments, cells were plated in the presence of ruxolitinib and were treated with interferon-0 and ruxolitinib the following day. Control wells were treated with dimethylsulfoxide (DMSO). Cell viability was assayed 3 or 6 days after drug treatment with CellTiter-Glo® Luminescent Cell Viability Assay kit (Promega). Viability was normalized to DMSO controls.
Cells were lysed in RIPA lysis buffer (Thermo Scientific) supplemented with 1× protease and phosphatase inhibitor cocktails (Roche). Protein extracts were analyzed by standard immunoblotting with the following antibodies: ADAR1 (D7E2M), MDA5 (D74E4), RIG-I (D14G6), ISG15 (22D2), USP18 (D4E7), PKR (#3072), STING (D2P2F), cGAS (D1D3G), IRF9 (D2T8M), PD-L1 (E1L3N), P-IRF3 Ser396 (4D4G), IRF3 (D6I4C), P-TBK1 Ser172 (D52C2), TBK1 (D1B4), P-EIF2α Ser51 (#9721), and EIF2α (D7D3) from Cell Signaling; P-PKR Thr446 (ab32036) from Abcam; R-actin C4 (sc-47778) from Santa Cruz. All antibodies were used at a dilution of 1:1000 except R-actin which was used at 1:4000). The following secondary antibodies were used at 1:5000 dilution: Goat anti-Rabbit IRDye 800CW (LI-COR, 926-32211) and Goat anti-Mouse IRDye […] (LI-COR, 926-68020). All immunoblots were imaged using the LI-COR digital imaging system and ImageJ.

[3] = system: ADAR1 knockout A549 cells; test: Viability of ADAR1 knockout A549 cells with interferon or drug treatment; type: cell-based, human
Description: as §1
for interferon treatment assays, cells were plated at a low density of 3000 cells per well in a 96-well assay plate. The following day, cells were treated with human interferon-alpha 1 (Cell Signaling, #8927) or recombinant human IFN-beta 1a (mammalian) protein (PBL Assay Science, 114151). Control wells were treated with water. Cell viability was assayed 3 or 6 days after drug treatment with CellTiter-Glo© Luminescent Cell Viability Assay kit (Promega). Viability was normalized to controls. Apoptosis was assayed 3 days after interferon treatment with Caspase-Glo®3/7 Assay kit (Promega). Dose curves were obtained using least-squares nonlinear regression on a standard four-parameter logistic model using GraphPad Prism.

[4] = system: B16 tumors; test: B16 tumor challenge (tumor volume, survival); type: in vivo, mouse; conditions: topical, every three days
From the text: The designs of these animal studies and procedures were approved by the Dana Farber Cancer Institute IACUC committee. Dana Farber's specific-pathogen free facility was used for the storage and care of all mice. Seven-week old wild-type female C57BL/6J mice were obtained from Jackson laboratories (Bar Harbor, ME). A colony of B6.129S2-Tcra^tm1Mom/J (Tcra) T cell-deficient mice were bred on site. Mice were aged matched to be 7-12 weeks old at the time of tumor inoculation. For screening, 2.0×10^6 library-transduced B16-Cas9 cells resuspended in Hanks Balanced Salt Solution (Gibco, Thermo Fisher Scientific, Waltham, MA) were mixed 1:1 by volume with Matrigel® (Corning, Corning, NY) and subcutaneously injected into the right flank on day 0. Mice were vaccinated with 1.0×10^6 GM-CSF-secreting B16 (GVAX) cells that had been irradiated with […] on days 1 and 4 to elicit an anti-tumor immune response. Subsequently, mice were treated with 100 μg of rat monoclonal anti-PD1 antibody (clone: 29F.1A12) on days 9 and 12 via intraperitoneal injection. For validation assays, 1.0×10^6 tumor cells were subcutaneously injected into the right flank without matrigel. Tumors were measured every 3 days beginning on day 6 after challenge until time of death. Measurements were taken manually by collecting the longest dimension (length) and the longest perpendicular dimension (width). Tumor volume was estimated with the formula: (L×W^2)/2. CO2 inhalation was used to euthanize mice on the day of sacrifice.
The designs of animal studies and procedures were approved by the Dana Farber Cancer Institute IACUC and the Broad Institute IACUC committees. Specific pathogen-free facilities at the Dana Farber and the Broad Institute were used for the storage and care of all mice. Six-week old wild-type female C57BL/6J mice were obtained from Jackson laboratories, Bar Harbor ME A colony of B6.129S2-Tcra^tm1Mom/J (Tcra) T cell-deficient mice were bred on site at the Dana Farber. […] Tumors were measured every 3 days beginning on day 6 after challenge until time of death. […]

[5] = molecular target: T2, ADA1 (Homo sapiens, UniProt P00813); conditions: cited from earlier work
T2 sequence (P00813 1-363): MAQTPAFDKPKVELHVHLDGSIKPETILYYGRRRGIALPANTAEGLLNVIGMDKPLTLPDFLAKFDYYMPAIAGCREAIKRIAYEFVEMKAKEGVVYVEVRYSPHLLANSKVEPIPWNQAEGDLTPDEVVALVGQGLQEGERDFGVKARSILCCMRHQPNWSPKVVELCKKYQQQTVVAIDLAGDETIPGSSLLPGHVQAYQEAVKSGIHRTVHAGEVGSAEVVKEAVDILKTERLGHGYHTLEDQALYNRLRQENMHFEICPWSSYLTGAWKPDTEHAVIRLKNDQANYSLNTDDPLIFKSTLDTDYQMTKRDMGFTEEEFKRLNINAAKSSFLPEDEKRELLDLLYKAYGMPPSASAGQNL

[6] = system: B16 tumor cells; test: In vitro cytokine stimulation and growth inhibition assay; type: cell-based, mouse; conditions: Adar-deficient versus control B16 tumor cells, 72 hours
Description: FIG. 9 includes 3 panels, identified as panels A, B, and C, which provide exemplary mechanisms of ADAR-induced sensitivity to checkpoint blockade. […] A certain number of B16 tumor cells (50 k; Adar null or control) were stimulated in vitro with cytokine for 72 hours and the cell numbers were then counted. […] A certain number of B16 tumor cells (50 k; Adar null or control) were stimulated with cytokine in vitro, washed to remove cytokine (for IFNβ), and evaluated via IFNβ ELISA. […] A certain number of B16 tumor cells (50 k; Adar null or control) were stimulated in vitro with cytokine for 72 hours and stained for Class I MHC and PD-L1.
Tumor cells were engineered as noted above and plated in DMEM+10% FBS containing the indicated combinations of cytokines: IFN (1,000 U/ml, PBL), IFN (100 ng/ml, Cell Signaling Technologies), TNF (10 ng/ml, PreproTech). For rescue/re-expression experiments, 10,000 cells were plated in 96-well plates and viable cells were enumerated after 72 hours using Cell Titer-Glo® (Promega, G7570). For all other growth inhibition assays, 50,000 cells were plated in 12-well plates and viable cells were counted after 72 hours using the Countess automated cell counting system (Thermo Fisher Scientific, C10227).

[7] = animals bearing Adar1 null B16 tumors

Nc1ccnc2c1ncn2[C@@H]1O[C@H](CO)[C@@H](O)[C@H]1O [1-deazaadenosine]
inhibition of ADA2 [1]: can inhibit both ADA1 and ADA2

c1ccc2c(c1)[I+]c1ccccc1-2 [DPI, diphenylene iodonium]
ISG expression / interferon signaling [2]: partially decreased ISG expression | ISG expression / interferon signaling ([2]; listed as diphenylene iodonium (DPI)): partially alleviates interferon signaling

Cl.O=C(NCCCNc1nc(Nc2cccc(CN3CCOCC3)c2)ncc1C1CC1)C1CCC1 [MRT67307, MRT67307 hydrocloride]
ISG expression ([2]; TBK1 inhibitor treatment): reduced

COc1cccc2c1C(=O)c1c(O)c3c(c(O)c1C2=O)C[C@@](O)(C(=O)CO)C[C@@H]3O[C@H]1C[C@H](N)[C@H](O)[C@H](C)O1 [doxorubicin]
sensitization to ADAR1 knockout [3]: failed to sensitize A549 cells to ADAR1 knockout

CC(C)Cn1cnc2c(N)nc3ccccc3c21 [imiquimod]
survival [4, 7]: enhanced survival | tumor growth [4, 7]: significantly slowed tumor growth | survival ([4]; animals bearing control B16 tumors): nor topical therapy with imiquimod, a TLR7 agonist, increased the survival

C[C@@H]1O[C@@H](O[C@H]2[C@H](Oc3cc(O)c4c(c3)O[C@H](c3ccc(O)cc3)CC4=O)O[C@H](CO)[C@@H](O)[C@@H]2O)[C@H](O)[C@H](O)[C@H]1O [naringin]
inhibition of ADA1 [5]: potent ADA1 inhibitor

OC[C@H]1O[C@@H](n2cnc3c2NC=NC[C@H]3O)C[C@@H]1O [pentostatin]
inhibition of ADA2 [1]: can inhibit both ADA1 and ADA2

IFNγ
cytokine-induced growth arrest [6]: increases IFNβ and IFNγ-induced growth arrest; also recorded: increases susceptibility to IFNβ and IFNγ

Type II interferon: recombinant human IFN-gamma protein (R&D Systems)
sensitization to ADAR1 knockout [3]: did not sensitize A549 cells to ADAR1 knockout

erythro-9-(2-hydroxy-3-nonyl)adenine [EHNA]
inhibition of ADA1 [5]: specifically inhibits ADA1
